Tests used:
[1] = system: human dermal fibroblasts (hDFs); test: Fluorescence microscopy of tattooed 3D skin-simulating scaffolds; type: cell-based; conditions: 7 days after tattooing, phalloidin and DAPI staining
Experimental: Cell-laden 3D scaffolds were fixed in a 2% formalin solution in PBS for 2 hours with gentle oscillatory mixing. All subsequent washing steps were performed for 30 minutes with oscillatory mixing with the indicated solution. The formalin solution was then decanted, and the scaffolds were washed 3 times with DI water. The cell membranes were permeabilized by washing the scaffolds with acetone solution (50% v/v acetone in 1×PBS) for 30 minutes. The samples were then washed 3 times with PBS-T (1×PBS, […]), then blocked with 1 mg/mL BSA in PBS-T (1×PBS, 0.1% Triton X-100). Actin was stained with phalloidin-488 (Invitrogen A12379) for 1 hour, then washed 3 times with 1×PBS. Nuclei were stained with DAPI (Invitrogen D3571) for 30 minutes then washed with PBS 3 times. Scaffolds were stored in 1×PBS at 4 C until imaged.
Fixed and stained samples as well as tattooed imaging phantoms were imaged with a Keyence BZ-X710 all-in-one fluorescence microscope. The DAPI filter channel (ex/em 355/450) was used to image both the DAPI stain, fluorescent pyrazoline-laden microparticles, and aqueous SilMA-pyrazoline tattoo inks. The GFP channel (ex/em 488/510) was used to image the phalloidin-stained actin.
Silk fibroin solution (5% w/w) was pipetted into a 24 well plate (1.5 mL per well) and frozen at −20 C. […]

[2] = system: human dermal fibroblasts (hDFs); test: 2D cell morphology by bright field transmission microscopy; type: cell-based; conditions: positive control, 1% in media, 24 hour incubation
Excerpt: Images were taken with a Motic AE2000 inverted microscope in bright field transmission through the bottom of transparent 96 well plates. Images from 2D cell culture were processed in GNU Image Manipulation Program V 2.10.12. Contrast was enhanced by changing light and dark levels to maximize the dynamic range of the image. The illumination artifacts were removed by creating a duplicate image on a separate layer and blurring it with a Gaussian blur strength 12.0. This layer was placed below the normal layer, and the two layers were mixed in the “Grain Extract” mixing mode. This process inverts the colors, so the color was inverted again to restore the original orientation.
Cellular morphology is an independent method of assessing cellular health. When healthy, cells like hDFs will adhere to flat plates in 2D culture and multiply rapidly, until they form a confluent layer. The pressure from surrounding cells tends to cause the cells to adopt an elongated and tubular morphology, often aligned with their neighboring cells. When cells are damaged, they will often suffer cytoskeletal damage and will lose their elongated morphology. Dead HDFs will be at the extreme end of this trend, appearing as very small spheres, devoid of cytoskeleton entirely.

[3] = system: human dermal fibroblasts (hDFs); test: 2D metabolic toxicity assay (MTT); conditions: positive control, 1% in media, 24 hours

Triton X-100
cell morphology / localized cytotoxicity in 3D scaffold [1]: only background fluorescence | cellular morphology [2]: small hard spheres indicative of dead cells | metabolic capacity (MTT) [3]: completely destroyed the metabolic capacity of the cells
